Assays:
Src = target: T1, Src (Homo sapiens, UniProt P12931); assay: Protein binding selectivity by change in fluorescence (fluorescence turn-on on binding)
T1 construct: purchased Carna Biosciences
Protocol: More particularly, to determine whether compound 1 selectively binds to a kinase enzyme, various proteins (including a kinase enzyme) were used to check a change in fluorescence. In this experiment, a buffer (100 mM HEPES buffer, pH 7.4) was used as the solvent, and a kinase commercially available from Carna Biosciences was used as the kinase enzyme. Here, each kinase enzyme was stored at −80° C. together with a solvent (50 mM Tris-HCl, 150 mM NaCl, 0.1% CHAPS, 1 mM DTT, and 10% Glycerol, pH 7.5) kindly provided by the manufacturer. […] A 96-well fluorescence assay plate (commercially available from SPL Life Science) was used as a plate used upon measurement of fluorescence, and a VCITOR 3 multilabel counter (commercially available from Perkin Elmer-Wellesley) was used as a measuring machine. A 355 nm-thick filter was used to produce excitation wavelengths of the measuring machine, and a 535 nm-thick filter was used to produce emission wavelengths of the measuring machine. Stirring was performed at 37° C. for 24 hours at a rotary speed of 170 rpm using an NB-205Q model (commercially available from N-BIOTEK). Compound 1 was dissolved in a DMSO solution (1 mM, 10 mM, 50 mM, 100 mM, and 200 mM) to be used, and DMSO in every tube was adjusted to be substantially the same content (less than 1%) under the finally used solvent conditions. Mg^2+ and ATP were used at a content of 1 mM.
In the graph shown in FIG. 2, the horizontal axis represents kinds of proteins, and the vertical axis represents fluorescence intensities of the proteins. Each experimental value was basically an average value of three experiments conducted through the same course for preparing for experiments, a concentration of compound 1 used was 100 μM, and an amount of each protein was 0.2 μg/mL. The kinds of proteins indicated on the horizontal axis are as follows. […]
More particularly, the solvent and experiment conditions used were substantially the same as in Example 3. In the graph shown in FIG. 7, A represents a fluorescence intensity when compound 1 (100 μM) is used alone, B represents a fluorescence intensity when Mg (1 mM) is added to compound 1, C represents a fluorescence intensity when ATP (1 mM) is added to compound 1, and D represents a fluorescence intensity when compound 1 is treated with Mg (1 mM) and ATP (1 mM) at the same time.
More particularly, a concentration of the kinase enzyme was set to 0.2 μg/mL, fluorescence intensity according to the concentration of compound 1 was measured in the presence of Mg (1 mM) and ATP (1 mM), and the solvent conditions and other conditions were substantially the same as in Example 3.

BRAF = target: T2, BRAF (Homo sapiens, UniProt P15056); assay: KINOMEscan competition binding (DiscoveRX); conditions: lower value means stronger binding
T2 construct: purchased DiscoveRX (contract KINOMEscan service)
T2 sequence (P15056 whole entry): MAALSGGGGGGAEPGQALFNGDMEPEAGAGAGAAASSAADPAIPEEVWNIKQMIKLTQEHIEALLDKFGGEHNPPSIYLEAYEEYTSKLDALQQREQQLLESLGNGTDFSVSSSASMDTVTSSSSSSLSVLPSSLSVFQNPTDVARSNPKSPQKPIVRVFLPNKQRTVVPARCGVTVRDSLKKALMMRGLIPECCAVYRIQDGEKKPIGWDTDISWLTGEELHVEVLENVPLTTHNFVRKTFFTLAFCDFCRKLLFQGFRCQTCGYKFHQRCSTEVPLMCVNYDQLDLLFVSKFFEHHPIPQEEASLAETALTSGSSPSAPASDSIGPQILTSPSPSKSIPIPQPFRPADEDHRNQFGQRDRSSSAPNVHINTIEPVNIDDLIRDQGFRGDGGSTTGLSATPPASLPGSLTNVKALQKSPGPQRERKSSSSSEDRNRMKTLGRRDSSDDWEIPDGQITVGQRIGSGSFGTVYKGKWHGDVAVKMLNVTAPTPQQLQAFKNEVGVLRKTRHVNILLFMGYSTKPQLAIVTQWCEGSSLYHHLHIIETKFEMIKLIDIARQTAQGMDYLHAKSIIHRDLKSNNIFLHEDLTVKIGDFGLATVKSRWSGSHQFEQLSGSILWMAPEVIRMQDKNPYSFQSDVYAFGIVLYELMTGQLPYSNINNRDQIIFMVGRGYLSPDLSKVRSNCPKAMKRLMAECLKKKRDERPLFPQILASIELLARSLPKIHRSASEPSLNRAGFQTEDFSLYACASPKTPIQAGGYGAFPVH
Description: (§1) More particularly, to determine selectivities to various kinds of kinase enzymes, the samples were entrusted to DiscoveRX (U.S.A), which was able to determine the binding affinities to a total of 96 kinase enzymes, to perform KINOMEscan experiments. This company treated all kinds of information on the entrusted samples as confidential, and analyzed the sample with charge. Compound 1 was provided to the company, and the company performed the KINOMEscan experiments, and provided the results (DiscoveRX corp.)
(§2) KINOMEscan is an experiment in which compound 1 and a compound (a material strongly binding to kinase enzymes) competing for compound 1 are treated with a kinase enzyme at the same time to determine how many the competing compound binds to active sites of the kinase enzymes, compared with compound 1. In this experiment, an experimental value is expressed as a percentile value. In this case, a lower percentile value means that compound 1 more strongly bind to the kinase enzymes.

PDGFRa = target: T3, PDGFRa (Homo sapiens, UniProt P16234); assay: KINOMEscan competition binding (DiscoveRX); conditions: lower value means stronger binding
T3 construct: purchased Carna Biosciences
T3 sequence (P16234 24-1089): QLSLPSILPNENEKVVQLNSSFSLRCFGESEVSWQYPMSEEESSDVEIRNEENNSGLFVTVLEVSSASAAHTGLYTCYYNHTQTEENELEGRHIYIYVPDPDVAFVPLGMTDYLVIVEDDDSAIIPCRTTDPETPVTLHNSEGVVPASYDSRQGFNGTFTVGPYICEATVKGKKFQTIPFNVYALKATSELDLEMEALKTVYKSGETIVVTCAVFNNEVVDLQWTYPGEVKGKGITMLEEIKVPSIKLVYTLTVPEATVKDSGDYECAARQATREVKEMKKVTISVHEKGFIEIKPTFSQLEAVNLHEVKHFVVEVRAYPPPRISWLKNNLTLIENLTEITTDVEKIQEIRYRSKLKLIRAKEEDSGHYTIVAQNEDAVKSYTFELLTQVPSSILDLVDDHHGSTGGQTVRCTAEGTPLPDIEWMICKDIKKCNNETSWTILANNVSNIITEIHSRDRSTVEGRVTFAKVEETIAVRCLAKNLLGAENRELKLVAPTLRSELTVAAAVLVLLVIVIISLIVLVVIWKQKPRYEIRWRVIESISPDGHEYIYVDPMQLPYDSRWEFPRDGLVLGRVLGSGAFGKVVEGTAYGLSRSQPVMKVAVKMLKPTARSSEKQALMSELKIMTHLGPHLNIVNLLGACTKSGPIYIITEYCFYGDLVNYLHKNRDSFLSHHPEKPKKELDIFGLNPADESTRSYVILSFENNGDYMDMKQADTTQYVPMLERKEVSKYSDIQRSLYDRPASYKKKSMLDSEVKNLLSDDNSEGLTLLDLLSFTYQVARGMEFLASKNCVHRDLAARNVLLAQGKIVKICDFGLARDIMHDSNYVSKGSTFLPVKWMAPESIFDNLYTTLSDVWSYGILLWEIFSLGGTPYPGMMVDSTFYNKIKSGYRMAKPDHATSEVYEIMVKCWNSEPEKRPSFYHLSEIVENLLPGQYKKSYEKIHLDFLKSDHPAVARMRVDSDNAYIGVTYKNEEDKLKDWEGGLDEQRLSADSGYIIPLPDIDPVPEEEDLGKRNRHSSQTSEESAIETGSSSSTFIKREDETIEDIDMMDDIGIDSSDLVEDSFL
Description: as §1, §2

RSK2 = target: T4, RSK2 (Homo sapiens, UniProt P51812); assay: KINOMEscan competition binding (DiscoveRX); conditions: lower value means stronger binding
T4 construct: purchased DiscoveRX (contract KINOMEscan service)
T4 sequence (P51812 whole entry): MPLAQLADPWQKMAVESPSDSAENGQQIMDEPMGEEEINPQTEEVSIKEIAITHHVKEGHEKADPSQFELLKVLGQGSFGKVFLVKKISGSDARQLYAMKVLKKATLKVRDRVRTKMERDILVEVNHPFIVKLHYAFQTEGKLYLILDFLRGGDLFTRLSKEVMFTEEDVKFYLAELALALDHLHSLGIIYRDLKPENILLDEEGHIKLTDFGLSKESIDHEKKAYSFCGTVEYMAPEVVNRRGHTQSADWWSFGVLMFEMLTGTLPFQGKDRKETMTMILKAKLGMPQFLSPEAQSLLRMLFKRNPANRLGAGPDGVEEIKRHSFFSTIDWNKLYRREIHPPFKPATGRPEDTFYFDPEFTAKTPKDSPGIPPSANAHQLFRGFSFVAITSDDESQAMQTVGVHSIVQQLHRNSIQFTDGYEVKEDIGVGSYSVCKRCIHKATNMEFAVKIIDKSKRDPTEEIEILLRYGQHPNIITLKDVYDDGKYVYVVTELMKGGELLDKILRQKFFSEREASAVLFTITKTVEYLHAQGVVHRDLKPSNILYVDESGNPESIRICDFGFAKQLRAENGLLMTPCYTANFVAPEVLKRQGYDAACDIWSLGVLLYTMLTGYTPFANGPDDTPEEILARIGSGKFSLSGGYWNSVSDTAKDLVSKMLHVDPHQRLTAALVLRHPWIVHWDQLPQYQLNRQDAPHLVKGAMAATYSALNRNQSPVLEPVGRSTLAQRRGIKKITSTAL
Description: as §1, §2

[1] = system: six kinase enzymes: ABL, BRAF, PDGFRa, RSK2, Src, TYK2; assay: Effect of kinase inhibitor on binding of compound 1 to kinase enzymes (fluorescence intensity)
Protocol: In this experiment, a buffer (100 mM HEPES buffer, pH 7.4) was used as the solvent, and a kinase commercially available from Carna Biosciences was used as the kinase enzyme. Here, each kinase enzyme was stored at −80° C. together with a solvent (50 mM Tris-HCl, 150 mM NaCl, 0.1% CHAPS, 1 mM DTT, and 10% Glycerol, pH 7.5) kindly provided by the manufacturer. […] A 96-well fluorescence assay plate (commercially available from SPL Life Science) was used as a plate used upon measurement of fluorescence, and a VCITOR 3 multilabel counter (commercially available from Perkin Elmer-Wellesley) was used as a measuring machine. A 355 nm-thick filter was used to produce excitation wavelengths of the measuring machine, and a 535 nm-thick filter was used to produce emission wavelengths of the measuring machine. […]
More particularly, an effect of the inhibitor on a total of the six kinase enzymes was determined, and the six kinase enzymes are as follows: (A) ABL, (B) BRAF, (C) PDGFRa, (D) RSK2, (E) Src, and (F) TYK2. […]
In this case, compound 1 (100 μM), ATP (1 mM), Mg (1 mM), and a kinase enzyme (0.2 μg/ml) were stirred for 24 hours (at 37° C.), and an inhibitor (100 μM) was then treated. […] Here, a left bar of each of A to F represents a fluorescence intensity before treatment of the inhibitor, and a right bar of each of A to F represents a fluorescence intensity after treatment of the inhibitor.

[2] = system: B16F10, CT26, SNU-475, A431, SKBR3, HeLa, U87MG cancer cells; assay: Fluorescence turn-on in cancer cells, single-photon and two-photon fluorescence microscopy; assay type: cell-based, mouse, human; conditions: 50 μM, one hour; single-photon ex 405 nm, two-photon ex 880 nm, em 500 to 550 nm
Protocol: More particularly, a total of seven kinds of cancer cells, for example, (a) B16F10 mouse skin cancer cells, (b) CT26 mouse colon cancer cells, (c) SNU-475 human liver cancer cells, (d) A431 human epidermoid carcinoma cells, (e) SKBR3 human breast cancer cells, (f) HeLa human uterine cancer cells, and (g) U87MG human brain tumor cells, were treated with compound 1, and fluorescence images of the cancer cells were observed under a single-photon (confocal) fluorescence microscope (FV1000 model, Olympus) and a two-photon fluorescence microscope (Chameleon Ultra, Coherent, home-built version). Each of the cancer cells were incubated in a minimum essential medium with Earle's balanced salts (MEM/EBSS), a Dulbecco's modified Eagle medium (DMEM), a Roswell Park Memorial Institute (RPMI) medium, a fetal bovine serum (FBS), a penicillin-streptomycin (PS) medium, phosphate buffered saline (PBS), and a trypsin-EDTA culture broth, all of which were commercially available from Hyclone. In this case, the incubation was performed at 37° C. […] When the preparation was completed, a fluorescence image was obtained using a fluorescence microscope.
In FIG. 11, the top panel represents a bright field image, the middle panel represents a single-photon fluorescence microscope image of the cells, and the bottom panel represents a two-photon fluorescence microscope image of the cells.

CT-26 cancer cells = assay: Emission wavelengths of fluorescence in cancer cells using an optical fiber; assay type: cell-based, mouse; conditions: CT-26 cells treated with compound 1 as in Example 12
Protocol: More particularly, CT-26 cancer cells were treated with compound 1 in the same manner as performed in Example 12, and emission wavelengths of fluorescence were then determined using an optical fiber. The optical fiber was connected to a spectrofluorometer (FL1039, HORIBA), and ranges of excitation wavelengths and emission wavelengths are substantially the same as in Example 12. Then, the emission wavelengths of fluorescence were determined.

T1 sequence (P12931 whole entry): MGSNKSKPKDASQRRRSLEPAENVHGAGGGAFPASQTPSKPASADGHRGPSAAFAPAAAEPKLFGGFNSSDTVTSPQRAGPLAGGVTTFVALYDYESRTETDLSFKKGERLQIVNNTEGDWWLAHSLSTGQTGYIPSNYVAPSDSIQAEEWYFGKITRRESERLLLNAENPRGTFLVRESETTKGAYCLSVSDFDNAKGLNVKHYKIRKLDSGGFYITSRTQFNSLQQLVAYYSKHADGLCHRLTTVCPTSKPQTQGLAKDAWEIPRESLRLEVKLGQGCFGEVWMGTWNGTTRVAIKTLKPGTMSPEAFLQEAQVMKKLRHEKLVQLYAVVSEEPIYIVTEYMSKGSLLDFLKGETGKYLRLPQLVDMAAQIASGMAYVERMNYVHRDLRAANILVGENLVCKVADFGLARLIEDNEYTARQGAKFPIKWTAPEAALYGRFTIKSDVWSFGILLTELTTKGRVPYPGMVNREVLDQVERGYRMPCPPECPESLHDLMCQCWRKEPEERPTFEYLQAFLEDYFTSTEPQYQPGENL

Structure (SMILES): CN(C)c1ccc2cc(C=O)c(O)cc2c1 [compound 1, 6-(dimethylamino)-3-hydroxyl-2-naphthaldehyde]
- fluorescence intensity (Src; compound 1 100 μM, protein 0.2 μg/mL, with Mg and ATP (1 mM), 37° C. 24 hours): increase in fluorescence
- fluorescence intensity, effect of cofactors (Src; compound 1 100 μM, case D: Mg (1 mM) and ATP (1 mM) together): highest increase in fluorescence intensity
- fluorescence signal intensity according to concentration of kinase enzyme (Src; compound 1 100 μM, enzyme 0.2 μg and 1 μg): stronger fluorescence signal intensity at higher concentrations
- increase in fluorescence intensity (Src; compound 1 at approximately 50 μM, kinase 0.2 μg/mL, Mg 1 mM, ATP 1 mM): approximately 50%
- KINOMEscan percentile value (BRAF): low percentile value
- KINOMEscan percentile value (PDGFRa): low percentile value
- KINOMEscan percentile value (RSK2): low percentile value
- fluorescence intensity after later treatment of inhibitor ([1]; 24 hours 37° C. with kinase, Mg, ATP, then inhibitor 100 μM for another 24 hours): decreased
- fluorescence intensity with inhibitor included ([1]; compound 1 100 μM, kinase 0.2 μg/ml, Mg 1 mM, ATP 1 mM, Gleevec 100 μM together): did not selectively bind to the kinase enzymes to cause a sufficient increase in fluorescence intensity
- fluorescence image in cancer cells [2]: bright fluorescence image
- emission wavelength of fluorescence in cells (CT-26 cancer cells): around 550 nm
